Assay results: PubChem BioAssay AID256 (DTP/NCI, 2004)
Several values for one entry are separate records, joined by “and”; a condition that tells them apart may be missing. Equal entries are not always repeated. Inconclusive results and toxic doses are left out. The calls were made as follows: active = survival T/C of 150% or more; inactive = T/C below 125% in these data.

Test system: CD2F1 mice, L1210 leukemia ip, survival T/C
Test: NCI In Vivo Anticancer Drug Screen. Data for tumor model L1210 Leukemia (intraperitoneal) in CD2F1 (CDF1) mice
Settings: higher = longer survival
How it was run: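 Mice carrying a transplanted tumor received test compound or vehicle alone. The value is the measurement in the treated group divided by that in the vehicle-treated control group.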

[1] = endpoint: mean survival time, dose: 100.0 mg/kg/injection, schedule: Q04DX003 (ip), vehicle: saline with Tween-80
[2] = endpoint: mean survival time, dose: 200.0 mg/kg/injection, schedule: Q04DX003 (ip), vehicle: saline with Tween-80
[3] = endpoint: mean survival time, dose: 400.0 mg/kg/injection, schedule: Q04DX003 (ip), vehicle: saline with Tween-80
[4] = endpoint: mean survival time, dose: 50.0 mg/kg/injection, schedule: Q01DX001 (ip), vehicle: saline
[5] = endpoint: mean survival time, dose: 100.0 mg/kg/injection, schedule: Q01DX001 (ip), vehicle: saline
[6] = endpoint: mean survival time, dose: 200.0 mg/kg/injection, schedule: Q01DX001 (ip), vehicle: saline
[7] = endpoint: mean survival time, dose: 400.0 mg/kg/injection, schedule: Q01DX001 (ip), vehicle: saline
[8] = endpoint: mean survival time, dose: 50.0 mg/kg/injection, schedule: Q04DX003 (ip), vehicle: saline
[9] = endpoint: mean survival time, dose: 100.0 mg/kg/injection, schedule: Q04DX003 (ip), vehicle: saline
[10] = endpoint: mean survival time, dose: 100.0 mg/kg/injection, schedule: Q01DX009 (ip), vehicle: saline with Tween-80
[11] = endpoint: mean survival time, dose: 12.5 mg/kg/injection, schedule: Q01DX009 (ip), vehicle: saline with Tween-80
[12] = endpoint: mean survival time, dose: 25.0 mg/kg/injection, schedule: Q01DX009 (ip), vehicle: saline with Tween-80
[13] = endpoint: mean survival time, dose: 50.0 mg/kg/injection, schedule: Q01DX009 (ip), vehicle: saline with Tween-80
[14] = endpoint: mean survival time, dose: 200.0 mg/kg/injection, schedule: Q01DX009 (ip), vehicle: saline with Tween-80
[15] = endpoint: mean survival time, dose: 400.0 mg/kg/injection, schedule: Q01DX009 (ip), vehicle: saline with Tween-80

Measured: T/C

CCOC(=O)CCC(=O)CC(O)(C(F)(F)F)C(F)(F)Cl (configuration not stated)
inactive: endpoint: mean survival time, dose: 100.0 mg/kg/injection, schedule: Q01DX009 (ip), vehicle: saline 104 % of control | [1] 86 % of control | endpoint: mean survival time, dose: 200.0 mg/kg/injection, schedule: Q01DX009 (ip), vehicle: saline 98 % of control | [2] 103 % of control | endpoint: mean survival time, dose: 400.0 mg/kg/injection, schedule: Q01DX009 (ip), vehicle: saline 107 % of control | [3] 96 % of control

Nc1ncc[nH]1
inactive: [4] 110 % of control | [5] 108 % of control | [6] 110 % of control | [7] 108 % of control

CC(=O)Nc1ncc([N+](=O)[O-])s1
inactive: endpoint: mean survival time, dose: 50.0 mg/kg/injection, schedule: Q04DX003 (ip), vehicle: saline with Tween-80 100 % of control | [1] 105 % of control | [2] 100 % of control

C[N+](C)(C)C12CCCC1S(=O)(=O)C2 (configuration not stated)
inactive: endpoint: mean survival time, dose: 25.0 mg/kg/injection, schedule: Q04DX003 (ip), vehicle: saline 106 % of control | [8] 98 % of control | [9] 96 % of control

O=C(O)C1CC1
inactive: [5] 96 % of control | [6] 108 % of control

COC1C(CO)OC(O)C(N)C1OC (configuration not stated)
inactive: [5] 103 % of control | [6] 103 % of control | [7] 97 % of control

O=C(C[n+]1ccccc1)N/N=C/c1ccc(Cl)cc1
inactive: [10] 107 % of control

CC(C#N)(C#N)N=Nc1ccc(Cl)cc1Cl
inactive: [11] 96 % of control and 102 % of control | [12] 100 % of control and 104 % of control | [13] 98 % of control and 107 % of control | [10] 101 % of control and 107 % of control | [14] 101 % of control and 111 % of control | [15] 113 % of control and 102 % of control

CN(C)/C=N/N=C1c2ccccc2-c2ccccc21
inactive: [10] 93 % of control | [1] 100 % of control | [14] 98 % of control | [2] 94 % of control | [15] 90 % of control | [3] 101 % of control

CC1=Nc2ccccc2N=C(C)C1
inactive: endpoint: mean survival time, dose: 50.0 mg/kg/injection, schedule: Q01DX009 (ip), vehicle: acetone 101 % of control | endpoint: mean survival time, dose: 100.0 mg/kg/injection, schedule: Q01DX009 (ip), vehicle: acetone 98 % of control

CC(C)(C)OC(=O)C(CCC(=O)O)NC(=O)OCc1ccccc1 (configuration not stated)
inactive: [1] 99 % of control | [2] 97 % of control | [3] 100 % of control

CN(C)N=Nc1ccc(NC(N)=O)cc1
active: endpoint: mean survival time, dose: 37.5 mg/kg/injection, schedule: Q01DX009 (ip), vehicle: Klucel (hydroxypropylcellulose) (HPC) 158 % of control | [13] 159 % of control
inactive: endpoint: mean survival time, dose: 6.25 mg/kg/injection, schedule: Q01DX009 (ip), vehicle: saline with Tween-80 108 % of control | endpoint: mean survival time, dose: 6.25 mg/kg/injection, schedule: Q01DX009 (ip), vehicle: saline 118 % of control | [11] 113 % of control | endpoint: mean survival time, dose: 12.5 mg/kg/injection, schedule: Q01DX009 (ip), vehicle: saline 111 % of control | [12] 118 % of control

COc1ccc(/C=C2/SC(=S)NC2=O)c(OC)c1OC
inactive: endpoint: mean survival time, dose: 75.0 mg/kg/injection, schedule: Q01DX001 (ip), vehicle: other 103 % of control | endpoint: mean survival time, dose: 150.0 mg/kg/injection, schedule: Q01DX001 (ip), vehicle: other 92 % of control | endpoint: mean survival time, dose: 300.0 mg/kg/injection, schedule: Q01DX001 (ip), vehicle: other 103 % of control

CC(=O)Nc1ccc(CN2CC(C)N(N)C(C)C2)cc1 (configuration not stated)
inactive: endpoint: mean survival time, dose: 12.5 mg/kg/injection, schedule: Q01DX009 (ip), vehicle: Klucel (hydroxypropylcellulose) (HPC) 103 % of control | endpoint: mean survival time, dose: 25.0 mg/kg/injection, schedule: Q01DX009 (ip), vehicle: Klucel (hydroxypropylcellulose) (HPC) 98 % of control | endpoint: mean survival time, dose: 50.0 mg/kg/injection, schedule: Q01DX009 (ip), vehicle: Klucel (hydroxypropylcellulose) (HPC) 98 % of control | endpoint: mean survival time, dose: 100.0 mg/kg/injection, schedule: Q01DX009 (ip), vehicle: Klucel (hydroxypropylcellulose) (HPC) 101 % of control | endpoint: mean survival time, dose: 200.0 mg/kg/injection, schedule: Q01DX009 (ip), vehicle: Klucel (hydroxypropylcellulose) (HPC) 103 % of control | endpoint: mean survival time, dose: 400.0 mg/kg/injection, schedule: Q01DX009 (ip), vehicle: Klucel (hydroxypropylcellulose) (HPC) 89 % of control

CCOC(=O)C1CN(C(=O)OCC)CC1=O (configuration not stated)
inactive: endpoint: mean survival time, dose: 50.0 mg/kg/injection, schedule: Q01DX001 (ip), vehicle: other 103 % of control | endpoint: mean survival time, dose: 100.0 mg/kg/injection, schedule: Q01DX001 (ip), vehicle: other 106 % of control | endpoint: mean survival time, dose: 200.0 mg/kg/injection, schedule: Q01DX001 (ip), vehicle: other 107 % of control | endpoint: mean survival time, dose: 400.0 mg/kg/injection, schedule: Q01DX001 (ip), vehicle: other 109 % of control

O=P1(NCCCl)OCCCN1CCCl (configuration not stated)
active: endpoint: mean survival time, dose: 100.0 mg/kg/injection, schedule: Q01DX001 (ip), vehicle: DMSO 153 % of control | endpoint: mean survival time, dose: 200.0 mg/kg/injection, schedule: Q01DX001 (ip), vehicle: DMSO 397 % of control | [6] 170 % of control | endpoint: mean survival time, dose: 400.0 mg/kg/injection, schedule: Q01DX001 (ip), vehicle: DMSO 430 % of control | endpoint: mean survival time, dose: 400.0 mg/kg/injection, schedule: Q01DX001 (ip), vehicle: clinical formulation 416 % of control | [7] 326 % of control and 685 % of control | endpoint: mean survival time, dose: 600.0 mg/kg/injection, schedule: Q01DX001 (ip), vehicle: clinical formulation 437 % of control | endpoint: mean survival time, dose: 600.0 mg/kg/injection, schedule: Q01DX001 (ip), vehicle: saline 451 % of control | endpoint: median survival time, dose: 108.0 mg/kg/injection, schedule: Q01DX001 (ip), vehicle: water 155 % of control and 157 % of control | endpoint: median survival time, dose: 180.0 mg/kg/injection, schedule: Q01DX001 (ip), vehicle: water 166 % of control and 173 % of control | endpoint: median survival time, dose: 300.0 mg/kg/injection, schedule: Q01DX001 (ip), vehicle: saline 315 % of control | endpoint: median survival time, dose: 300.0 mg/kg/injection, schedule: Q01DX001 (ip), vehicle: water 200 % of control and 215 % of control | endpoint: median survival time, dose: 300.0 mg/kg/injection, schedule: Q01DX001 (iv), vehicle: saline 223 % of control | endpoint: median survival time, dose: 450.0 mg/kg/injection, schedule: Q01DX001 (ip), vehicle: saline 616 % of control | endpoint: median survival time, dose: 450.0 mg/kg/injection, schedule: Q01DX001 (iv), vehicle: saline 616 % of control
inactive: endpoint: mean survival time, dose: 25.0 mg/kg/injection, schedule: Q01DX001 (ip), vehicle: DMSO 111 % of control | endpoint: mean survival time, dose: 25.0 mg/kg/injection, schedule: Q01DX001 (ip), vehicle: saline 102 % of control | [4] 122 % of control | endpoint: median survival time, dose: 500.0 mg/kg/injection, schedule: Q01DX001 (ip), vehicle: water 65 % of control

CC1NCCCNCCCNC(C)c2cccc1n2 (configuration not stated)
inactive: endpoint: mean survival time, dose: 50.0 mg/kg/injection, schedule: Q04DX002 (ip), vehicle: saline 104 % of control

CC1CC(C)(C)N=C(C(C)CC2CCCCC2)O1 (configuration not stated)
inactive: endpoint: mean survival time, dose: 100.0 mg/kg/injection, schedule: Q01DX001 (ip), vehicle: saline with Tween-80 95 % of control | endpoint: mean survival time, dose: 200.0 mg/kg/injection, schedule: Q01DX001 (ip), vehicle: saline with Tween-80 93 % of control

CCCCCCC#CC(O)CC (configuration not stated)
inactive: [13] 97 % of control | [10] 105 % of control

CC(CN)OS(=O)(=O)O (configuration not stated)
inactive: [13] 100 % of control | [8] 103 % of control | [10] 105 % of control | [9] 106 % of control | [14] 101 % of control | endpoint: mean survival time, dose: 200.0 mg/kg/injection, schedule: Q04DX003 (ip), vehicle: saline 97 % of control | [15] 101 % of control | endpoint: mean survival time, dose: 400.0 mg/kg/injection, schedule: Q04DX003 (ip), vehicle: saline 105 % of control

O=C1CN(CCN2CC(=O)N(C(=O)c3ccccc3)C2=S)C(=S)N1Cc1ccccc1
inactive: [13] 96 % of control | [10] 96 % of control | [14] 96 % of control

CCC(=O)[O][Bi]([c]1ccccc1)[c]1ccccc1
inactive: endpoint: median survival time, dose: 3.12 mg/kg/injection, schedule: Q01DX009 (ip), vehicle: Klucel (hydroxypropylcellulose) (HPC) 108 % of control | endpoint: median survival time, dose: 6.25 mg/kg/injection, schedule: Q01DX009 (ip), vehicle: Klucel (hydroxypropylcellulose) (HPC) 108 % of control | endpoint: median survival time, dose: 12.5 mg/kg/injection, schedule: Q01DX009 (ip), vehicle: Klucel (hydroxypropylcellulose) (HPC) 103 % of control | endpoint: median survival time, dose: 25.0 mg/kg/injection, schedule: Q01DX009 (ip), vehicle: Klucel (hydroxypropylcellulose) (HPC) 112 % of control and 111 % of control

Cc1nc(C(=O)O)c(C)c(=O)[nH]1
inactive: endpoint: mean survival time, dose: 25.0 mg/kg/injection, schedule: Q01DX005 (ip), vehicle: water 98 % of control | endpoint: mean survival time, dose: 50.0 mg/kg/injection, schedule: Q01DX005 (ip), vehicle: water 104 % of control | endpoint: mean survival time, dose: 100.0 mg/kg/injection, schedule: Q01DX005 (ip), vehicle: water 89 % of control | endpoint: mean survival time, dose: 200.0 mg/kg/injection, schedule: Q01DX005 (ip), vehicle: water 87 % of control
